Laboratory results as given in patent US6558664B1, “Chondrocyte cell-lines” (Cell Factors plc, priority 1994, dated 2003).

Test system: chondrocyte cell-lines cloned from foetal femur
Test: Von Kossa staining of calcium mineralisation in monolayer cultures of immortalised foetal femur chondrocyte cell-lines
Type: cell-based, human
Details: three chondrocyte clones incubated at the oncogene's non-permissive temperature (39° C.) in the presence of 1,25(OH)2D3; in its absence cells do not actively mineralise calcium; FIG. 5
Description: Foetal rib or femur tissue was taken at 7-9 weeks of gestation and placed in tissue culture flasks (Costar Limited, UK) in Eagle's minimum essential medium (Gibco Co Limited, UK) containing antibiotics and L-glutamine as well as 10% heat in activated foetal bovine serum. Cultured cells were maintained in a humidified atmosphere at 5% CO2 and 37° C. and medium changed at regular intervals (2-3 days). As is usual for primary cultures of resected tissue, cells within the sample move out from the body of the tissue, adhere to the flask surface, and replicate, potentially, to cover the whole surface of the tissue culture dish. After an initial period of, say, 2 weeks in primary culture. The cell population was transfected with a temperature sensitive mutant of the simium virus-40 derived large tumour (T) antigen using retroviral transduction.
In short, amphotropically packaged retroviral particles comprising this construct and a resistance marker to geneticin, G418 (kindly donated by Dr M O'Hare, Institute of Cancer Research, Royal Marsden Hospital, Lincoln's Inn, Sutton, Surrey, alternatively, essentially the same construct expressing a temperature sensitive mutant of the SV40-T oncogene was kindly donated by Professor Phil Gaillimore, CRC Laboratories, University of Birmingham, UK) was added to the medium together with polybrene (Sigma Chemicals) to a final concentration of 0.8 mg/ml. […]

SMILES: C=C1/C(=C\C=C2/CCC[C@]3(C)[C@@H]([C@H](C)CCCC(C)(C)O)CC[C@@H]23)C[C@@H](O)C[C@@H]1O [1,25(OH)2D3]
- calcium mineralisation (Von Kossa staining): each clone actively mineralises calcium
